Data: US6413974B1, “6,9,-disubstituted 2-[trans-(4-aminocyclohexyl) amino] purines” (Aventis Pharmaceuticals Inc., priority 1998, dated 2002)
“And” between values parts separate entries of the source, which are not always exact repeats. Identical values can stand only once. Counter-ions that a name gives are not always drawn. Like-named read-outs stand apart in the source and are kept apart here.

What was measured:
[1] = target: T1, cdk2/cyclin E (Homo sapiens, UniProt P24941); experiment: Cyclin-Dependent Kinase 2 Assay (cdk-2 inhibition); format: biochemical; details: GST-Rb substrate, 30 min at 30° C.
T1 construct: made in house; host or cells: insect cells (baculovirus co-infection)
Protocol: (§1) The transformed bacteria were grown overnight to saturation, then diluted in YT broth and incubated at 37° C. for 2 h. The protein was induced by incubation with 0.1 mM isopropylthioglycoside for 3 h. Following sedimentation by centrifugation, the cells were lysed by sonication in STE buffer ([…] NaCl, 10 mM Tris, pH 8.0, 1 mM EDTA) containing 10% sarkosyl. Particulate matter was removed by centrifugation and the lysate was incubated with glutathione-Sepharose at 4° C. The beads were washed with kinase buffer and then quantitation of Coomassie blue-stained proteins separated by SDS-PAGE was performed using a protein standard of known concentration.
(§2) Pre-wet Millipore Multiscreen 96-well filter plates (0.65 μm Durapore filters) with 200 μl kinase buffer (50 mM HEPES, pH 7.5, 10 mM MgCl2, 1 mM EGTA). GST-Rb (0.5 μg) bound to glutathione-Sepharose beads is added in 50 μl per well and the solution removed by application of vacuum. […] Add 0.1 μg cdk4/cyclin D1 (insect cell lysate) to initiate assay. Incubate 30 min at 37° C. Terminate reaction by filtration on Millipore Vacuum Manifold. Wash four times with TNEN (20 mM Tris, pH 8.0, 100 mM Na Cl, 1 mM EDTA, 0.5% nonidet P-40). After drying the plates at room temperature, the filter plates were placed in adapter plates (Packard) and 40 μl of Microscint-O® (Packard) was added to each well. Top Seal A film was used to cover the plates before counting in a Top Count Scintillation Counter.
GST-Rb as described above for cdk4/cyclin D1
Assay conditions for cdk2/cyclin E were identical to those for cdk4/cyclin D1 including the substrate. The concentration of recombinant cdk2/cyclin E in the assay was 0.1 μg per 100 μl assay. Incubation was for 30 min at 30° C.

[2] = target: T2, cdk4/cyclin D1 (Homo sapiens, UniProt P11802); experiment: Cyclin-dependent kinase 4 Assay; format: biochemical; details: cdk4/cyclin D1, GST-Rb substrate, 10 μM ATP, 30 min at 37° C.; read-out: CDK4 Inhibition IC50
T2 construct: made in house; host or cells: Sf9 insect cells (Bac-to-Bac baculovirus, pFastBac)
T2 sequence (P11802 whole entry): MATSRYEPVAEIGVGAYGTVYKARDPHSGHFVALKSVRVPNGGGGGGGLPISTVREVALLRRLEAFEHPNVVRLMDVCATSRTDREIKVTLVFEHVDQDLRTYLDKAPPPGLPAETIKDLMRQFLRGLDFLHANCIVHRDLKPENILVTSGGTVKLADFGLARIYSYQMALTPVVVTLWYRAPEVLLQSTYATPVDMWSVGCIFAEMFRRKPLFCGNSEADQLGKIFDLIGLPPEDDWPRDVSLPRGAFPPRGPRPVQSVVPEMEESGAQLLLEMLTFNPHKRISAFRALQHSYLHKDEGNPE
T2 sequence (P24385 whole entry partner): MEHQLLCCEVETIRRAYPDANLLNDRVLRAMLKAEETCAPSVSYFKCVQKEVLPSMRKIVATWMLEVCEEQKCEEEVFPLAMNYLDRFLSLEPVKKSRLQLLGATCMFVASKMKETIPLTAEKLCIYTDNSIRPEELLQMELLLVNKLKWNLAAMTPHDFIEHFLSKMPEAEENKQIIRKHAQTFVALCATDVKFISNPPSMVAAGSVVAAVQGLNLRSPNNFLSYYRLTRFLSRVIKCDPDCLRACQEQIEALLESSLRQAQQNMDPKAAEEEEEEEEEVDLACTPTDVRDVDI
Protocol: The IC50 values for cdk-4 inhibition were by the following method:
as §1
The cDNA for human cyclin D1 was cloned by RT PCR using […] from MCF-7 cells. […] Bacmid DNA was used to transfect Sf9 insect cells to produce recombinant virus. Following plaque purification of the virus, the viral preparations were amplified until high titer stocks were acheived.
Lysates were prepared by lysis of Sf9 cells coinfected with cdk4 and cyclin D1 in 50 mM HEPES, pH 7.5, 10 mM MgCl2, 1 mM DTT, 0.1 mM phenylmethylsulfonyl fluoride, 5 μg/ml aprotinin, and 5 μg/ml leupeptin using a PARR bomb under 500 p.s.i nitrogen pressure for 5 min at 4° C. Insoluble material was sedimented at 10,000×g for 20 min at 4° C. Glycerol was added to the supernatant to 10% and stored at −80° C. in aliquots.
as §2

[3] = system: DU 145; experiment: In vitro tumor cell proliferation, DU 145; format: cell-based, human; details: read-out: In vitro Tumor Cell Proliferation (IC50, μM) Prostate DUI45
Protocol: (§3) The proliferation of tumor cells was measured using a sulforhodamine B assay as described in Skehan, P., et al., J. Natl. Cancer Inst. […] Tumor cells were harvested with trypsin-EDTA, cells that excluded trypan blue were counted, added to 96-well plates and incubated overnight at 37° C. Drug was added to the wells following dilution in culture medium. Three days later, the medium was removed and replenished with medium containing fresh drug and incubated an additional 4 days. The cells were then fixed with 0.1 ml 10% trichloroacetic acid for 60 min at 4° C. The plates were rinsed five times with tap water, air-dried and stained for 30 min with 0.4% sulforhodamine B in 1% acetic acid and air-dried.
(§4) Alternatively, the CyQUANT cell proliferation assay was used to quantify tumor cell proliferation. Tumor cells were harvested with trypsin-EDTA, cells that excluded trypan blue were counted, added to 96-well plates and incubated overnight at 37° C. Drug was added to the wells following dilution in culture medium. Three days later the medium was removed and the plates frozen at −80° C. for at least 30 minutes.

[4] = system: MDA-MB-231; experiment: In vitro tumor cell proliferation, MDA-MB-231; format: cell-based, human; details: read-out: In vitro Tumor Cell Proliferation (IC50, μM) Breast MDA-MB-231
Protocol: as §3, §4

[5] = system: PC-3; experiment: In vitro tumor cell proliferation, PC-3; format: cell-based, human; details: read-out: In vitro Tumor Cell Proliferation (IC50, μM) Prostate PC-3
Protocol: as §3, §4

[6] = system: HT-29; experiment: In vitro tumor cell proliferation, HT-29; format: cell-based, human; details: read-out: In vitro Tumor Cell Proliferation (IC50, μM) Colon HT-29 (converted)
Protocol: as §3, §4
HT-29 is a human colon adenocarcinoma, moderately well-differentiated grade II (HTB 38);

[7] = system: DMS-114; experiment: In vitro tumor cell proliferation, DMS-114; format: cell-based, human; details: read-out: In vitro Tumor Cell Proliferation (IC50, μM) Lung DMS-114
Protocol: as §3, §4

[8] = system: A549; experiment: In vitro tumor cell proliferation, A549; format: cell-based, human; details: read-out: In vitro Tumor Cell Proliferation (IC50, μM) Lung A549
Protocol: as §3, §4

[9] = system: Colo-205; experiment: In vitro tumor cell proliferation, Colo-205; format: cell-based, human; details: read-out: In vitro Tumor Cell Proliferation (IC50, μM) Colon Colo-205
Protocol: as §3, §4

[10] = system: MDA-MB-435; experiment: In vitro tumor cell proliferation, MDA-MB-435; format: cell-based, human; details: read-out: In vitro Tumor Cell Proliferation (IC50, μM) Breast MDA-MB-435
Protocol: as §3, §4

[11] = Homo sapiens, DU-145, values marked * (mark not explained)
[12] = values marked * (mark not explained), trihydrochloride
[13] = Homo sapiens, MDA-MB-231, values marked * (mark not explained)
[14] = Homo sapiens, PC-3, values marked * (mark not explained)
[15] = Homo sapiens, HT-29, values marked * (mark not explained)
[16] = Homo sapiens, DMS-114, values marked * (mark not explained)
[17] = Homo sapiens, A549, values marked * (mark not explained)
[18] = Homo sapiens, COLO 205, values marked * (mark not explained)
[19] = values marked * (mark not explained), dihydrochloride
[20] = values without *, dihydrochloride

Row | IC50 [1] | IC50 [2] | IC50 [3, 11] | IC50 [5, 14] | IC50 [6, 15] | IC50 [7, 16] | IC50 [8, 17] | IC50 [9, 18] | IC50 [6, 19] | IC50 [8, 19] | SMILES | also measured
1 | 5.1 µM | > 100 µM |  |  |  |  |  |  |  |  | N[C@H]1CC[C@H](Nc2nc(NCCc3ccc4c(c3)OCO4)c3ncn(C4CCCC4)c3n2)CC1 [Example 4, 2-[Trans-(4-aminocyclohexyl)amino]-6-[2-(3,4-methylenedioxyphenyl)ethylamino]-9-cyclopentylpurine dihydrochloride] | 
2 | 2.6 µM | > 100 µM |  |  |  |  |  |  |  |  | C[C@H](Nc1nc(N[C@H]2CC[C@H](N)CC2)nc2c1ncn2C1CCCC1)c1ccccc1 [Example 6, (S)-2-[Trans-(4-aminocyclohexyl)amino]-6-[(α-methylbenzyl)amino]-9-cyclopentylpurine dihydrochloride] | 
3 | 0.11 µM | 3.2 µM and 4.2 µM | 6.7 µM | 7.2 µM | 11 µM | 8.8 µM | 7.9 µM | 5.3 µM |  |  | N[C@H]1CC[C@H](Nc2nc(NCCN3CCOCC3)c3ncn(C4CCCC4)c3n2)CC1 [Example 13, 2-[Trans-(4-aminocyclohexyl)amino]-6-[2-(4-morpholinyl)ethylamino]-9-cyclopentylpurine trihydrochloride] | IC50 [3, 12]: 7.5 µM; IC50 [4, 13]: 4.8 µM; IC50 [4, 12]: 9.4 µM; IC50 [5, 12]: 6.4 µM; IC50 [7, 12]: 6.2 µM; IC50 [8, 12]: 6.9 µM; IC50 [9, 12]: 5.2 µM
4 | 0.1 µM | 1.5 µM | 2.8 µM | 2.3 µM | 2.7 µM | 1.3 µM | 1.4 µM | 2.4 µM |  |  | CC(C)n1cnc2c(NCc3cccc(Cl)c3)nc(N[C@H]3CC[C@H](N)CC3)nc21 [Example 15, 2-[Trans-(4-aminocyclohexyl)amino]-6-[(3-chloro)benzylamino]-9-(2-propyl)purine dihydrochloride] | IC50 [4, 13]: 3 µM
5 | 0.12 µM and 0.1 µM | 1.3 µM and 1 µM |  |  | 2.4 µM |  | 1.7 µM |  | 2.5 µM and 4.1 µM | 2.2 µM and 1.8 µM | N[C@H]1CC[C@H](Nc2nc(NCc3ccccc3Cl)c3ncn(C4CCCC4)c3n2)CC1 [Example 18, 2-[Trans-(4-aminocyclohexyl)amino]-6-[(2-chlorobenzyl)amino]-9-cyclopentylpurine dihydrochloride] | IC50 ([10]; Homo sapiens, MDA-MB-435, values marked * (mark not explained)): 8 µM; IC50 [10, 19]: 8.2 µM
6 | 0.014 µM and 0.026 µM and 0.006 µM | 0.18 µM | 0.8 µM | 0.9 µM | 1.5 µM | 0.7 µM | 1.2 µM | 2.1 µM | 2.1 µM | 1.8 µM | CCNc1nc(N[C@H]2CC[C@H](N)CC2)nc2c1ncn2C1CCCC1 [Example 33, 2-[Trans-(4-aminocyclohexyl)amino]-6-(ethylamino)-9-cyclopentylpurine dihydrochloride] | IC50 [5, 19]: 1 µM; IC50 [7, 19]: 0.9 µM
7 | 0.019 µM | 1.4 µM |  | 1.4 µM | 2.1 µM | 1.2 µM | 1.7 µM | 2.4 µM | 3.6 µM | 1.1 µM | N[C@H]1CC[C@H](Nc2nc(NCc3ccco3)c3ncn(C4CCCC4)c3n2)CC1 [Example 38, 2-[Trans-(4-aminocyclohexyl)amino]-6-(2-furanmethylamino)-9-cyclopentylpurine dihydrochloride] | IC50 [5, 19]: 1.7 µM; IC50 [9, 19]: 2.8 µM
8 | 0.42 µM | 1 µM and 6 µM |  |  |  |  |  |  |  |  | N[C@H]1CC[C@H](Nc2nc(NCc3ccccc3F)c3ncn(C4CCCC4)c3n2)CC1 [Example 42, 2-[Trans-(4-aminocyclohexyl)amino]-6-[(2-fluorobenzyl)amino]-9-cyclopentylpurine dihydrochloride] | IC50 ([3]; Homo sapiens, DU-145, values without *): 7.3 µM; IC50 ([4]; Homo sapiens, MDA-MB-231, values without *): 16 µM; IC50 [4, 20]: 17 µM; IC50 ([5]; Homo sapiens, PC-3, values without *): 8.8 µM; IC50 [5, 20]: 7.1 µM; IC50 ([6]; Homo sapiens, HT-29, values without *): 15 µM; IC50 ([7]; Homo sapiens, DMS-114, values without *): 10 µM; IC50 [7, 20]: 5.1 µM; IC50 ([8]; Homo sapiens, A549, values without *): 7.1 µM
9 | 0.78 µM | 2.1 µM |  |  |  |  |  |  |  |  | CC(C)n1cnc2c(NCc3cccc(I)c3)nc(N[C@H]3CC[C@H](N)CC3)nc21 [Example 51, 2-[Trans-(4-aminocyclohexyl)amino]-6-[(3-iodobenzyl)amino]-9-(2-propyl)purine dihydrochloride] | 
